Laboratory results from US12139520B2 (priority 2020, dated 2024).
Bridge positions count the residues as written; N and C are the ends. Square brackets hold non-standard residues; d marks the D form. Peptide text beside a SMILES is read from it. Hyp = O=C(O)[C@@H]1C[C@@H](O)CN1

What was measured:
hAMY3 receptor = target: T1, hAMY3 receptor (Homo sapiens, UniProt O60896+P30988); experiment: cAMP assay for in vitro receptor activation, hAMY3-R; assay type: cell-based; conditions: cAMP assay, hAMY3 receptor; read-out: hAMY3R EC50
T1 sequence (P30988 25-474): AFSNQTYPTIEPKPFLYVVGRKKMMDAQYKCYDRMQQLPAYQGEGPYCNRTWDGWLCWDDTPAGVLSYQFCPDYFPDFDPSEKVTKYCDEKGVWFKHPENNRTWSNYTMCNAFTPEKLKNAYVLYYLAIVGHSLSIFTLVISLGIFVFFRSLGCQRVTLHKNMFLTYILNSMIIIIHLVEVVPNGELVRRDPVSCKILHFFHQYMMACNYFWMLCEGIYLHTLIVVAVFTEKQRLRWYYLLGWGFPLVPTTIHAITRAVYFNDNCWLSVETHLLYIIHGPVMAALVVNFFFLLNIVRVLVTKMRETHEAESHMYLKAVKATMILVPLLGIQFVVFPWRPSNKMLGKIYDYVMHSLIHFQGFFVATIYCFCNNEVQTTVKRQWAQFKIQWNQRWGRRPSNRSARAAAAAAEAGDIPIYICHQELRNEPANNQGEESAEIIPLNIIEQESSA
T1 sequence (O60896 24-148 partner): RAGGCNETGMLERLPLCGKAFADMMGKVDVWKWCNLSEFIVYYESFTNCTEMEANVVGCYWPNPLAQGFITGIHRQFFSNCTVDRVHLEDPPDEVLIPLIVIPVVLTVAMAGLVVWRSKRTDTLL
In short: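 Monoclonal cell line stably overexpressing human AMY3 receptor, 2000 cells/well in DPBS with 0.05% casein and 0.5 mM IBMX. Stimulated 30 min at room temperature with graded compound doses, human amylin as positive control. cAMP accumulation read by TR-FRET after one hour.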

hAM1 receptor = hAM1 receptor (Homo sapiens, UniProt O60895+Q16602); experiment: cAMP assay for in vitro receptor activation, hAM1-R; assay type: cell-based; conditions: cAMP assay, hAM1 receptor; read-out: hAM1R EC50
Chain of hAM1 receptor (Q16602 23-461): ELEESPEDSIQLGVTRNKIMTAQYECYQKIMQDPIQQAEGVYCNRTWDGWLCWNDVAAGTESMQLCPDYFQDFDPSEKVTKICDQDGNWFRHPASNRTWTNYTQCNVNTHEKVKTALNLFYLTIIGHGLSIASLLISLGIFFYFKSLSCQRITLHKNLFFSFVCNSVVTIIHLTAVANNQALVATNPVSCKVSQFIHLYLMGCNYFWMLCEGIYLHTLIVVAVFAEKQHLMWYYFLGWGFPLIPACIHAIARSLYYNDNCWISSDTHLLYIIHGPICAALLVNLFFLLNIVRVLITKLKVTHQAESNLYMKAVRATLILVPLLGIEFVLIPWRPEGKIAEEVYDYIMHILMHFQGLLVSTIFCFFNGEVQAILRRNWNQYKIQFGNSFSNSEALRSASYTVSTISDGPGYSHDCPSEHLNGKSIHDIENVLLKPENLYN
Chain of hAM1 receptor (O60895 43-175 partner): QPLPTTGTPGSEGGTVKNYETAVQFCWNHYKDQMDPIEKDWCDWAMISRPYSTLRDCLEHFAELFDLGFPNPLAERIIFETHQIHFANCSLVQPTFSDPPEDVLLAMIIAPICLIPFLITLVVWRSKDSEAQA
In short: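 Read-out is intracellular cAMP as a measure of receptor activation. Cells stably overexpressing hAM1 were subcloned to a monoclonal line, then thawed and seeded at 8000 cells/well in DPBS with 0.05% casein and the phosphodiesterase inhibitor IBMX at 0.5 mM.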

[1] = Physical stability of peptide analogues (Thioflavin T fibrillation); assay type: physicochemical; conditions: maximum ThT signal normalized between hAMY maximum and buffer background; 40° C., shaking, four days; pH 7 per table title
In short: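 1 h in 50 mM NaOAc pH 4 / 50 mM NaPi pH 7; + ThT 4 μM final; 40 °C, 700 rpm linear shake 5 min pre-read; ex 450, em 480 nm q10 min × 4 d; LOESS smoothing; max signal normalised to hAMY max vs buffer blank.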

Row | SMILES | EC50 (hAMY3 receptor) [nM] | EC50 (hAM1 receptor) [nM] | Max ThT signal (%) [1] [%]
1 | CC[C@H](C)[C@H](NC(=O)[C@H](CCC(N)=O)NC(=O)[C@H](Cc1c[nH]cn1)NC(=O)[C@H](C)NC(=O)[C@H](CC(C)C)NC(=O)[C@H](Cc1c[nH]c2ccccc12)NC(=O)[C@H](CCC(N)=O)NC(=O)[C@@H](NC(=O)[C@@H](NC(=O)[C@@H]1CSSC[C@H](NC(=O)[C@@H](N)CCCCN)C(=O)N[C@@H](CC(N)=O)C(=O)N[C@@H]([C@@H](C)O)C(=O)N[C@@H](C)C(=O)N[C@@H]([C@@H](C)O)C(=O)N1)[C@@H](C)O)C(C)C)C(=O)N[C@@H](Cc1ccc(O)cc1)C(=O)N[C@@H](CCC(N)=O)C(=O)N[C@@H](Cc1ccccc1)C(=O)N[C@H](C(=O)N[C@@H](CC(=O)O)C(=O)N[C@@H](CCCCN)C(=O)N[C@@H](CC(=O)O)C(=O)N[C@@H](CCCCN)C(=O)N[C@@H](CC(=O)O)C(=O)N[C@@H](CC(N)=O)C(=O)N[C@H](C(=O)N[C@@H](C)C(=O)N1CCC[C@H]1C(=O)N[C@@H](CCCNC(=N)N)C(=O)N[C@H](C(=O)N[C@@H](CCCCN)C(=O)N[C@H](C(=O)NCC(=O)N[C@@H](CO)C(=O)N[C@@H](CC(N)=O)C(=O)NCC(=O)N1C[C@H](O)C[C@H]1C(N)=O)C(C)C)[C@@H](C)O)C(C)C)[C@@H](C)O [compound 312] (H-KCNTATCTVQWLAHQIYQFTDKDKDNVAPRTKVGSNG[Hyp]-NH2; disulfide 2-7; N-terminus assumed) | 0.012 | > 5000 | 17.000
2 | CC[C@H](C)[C@H](NC(=O)[C@H](CCC(N)=O)NC(=O)[C@H](Cc1c[nH]cn1)NC(=O)[C@H](C)NC(=O)[C@H](CC(C)C)NC(=O)[C@H](Cc1c[nH]c2ccccc12)NC(=O)[C@H](CCC(N)=O)NC(=O)[C@@H](NC(=O)[C@@H](NC(=O)[C@@H]1CSSC[C@H](NC(=O)[C@@H](N)CCCCN)C(=O)N[C@@H](CC(N)=O)C(=O)N[C@@H]([C@@H](C)O)C(=O)N[C@@H](C)C(=O)N[C@@H]([C@@H](C)O)C(=O)N1)[C@@H](C)O)C(C)C)C(=O)N[C@@H](Cc1ccc(O)cc1)C(=O)N[C@@H](CCC(N)=O)C(=O)N[C@@H](Cc1ccccc1)C(=O)N[C@@H](C)C(=O)N[C@@H](CC(=O)O)C(=O)N[C@@H](CCCCN)C(=O)N[C@@H](CC(=O)O)C(=O)N[C@@H](CCCCN)C(=O)N[C@@H](CC(=O)O)C(=O)N[C@@H](CC(N)=O)C(=O)N[C@H](C(=O)N[C@@H](C)C(=O)N1CCC[C@H]1C(=O)N1CCC[C@H]1C(=O)N[C@H](C(=O)N[C@@H](CC(N)=O)C(=O)N[C@H](C(=O)NCC(=O)N[C@@H](CO)C(=O)N[C@@H](CC(N)=O)C(=O)NCC(=O)N1C[C@H](O)C[C@H]1C(N)=O)C(C)C)[C@@H](C)O)C(C)C [compound 313] (H-KCNTATCTVQWLAHQIYQFADKDKDNVAPPTNVGSNG[Hyp]-NH2; disulfide 2-7; N-terminus assumed) | 0.004 | > 5000 | 15.050
3 | CC[C@H](C)[C@H](NC(=O)[C@H](CCC(N)=O)NC(=O)[C@H](Cc1c[nH]cn1)NC(=O)[C@H](C)NC(=O)[C@H](CC(C)C)NC(=O)[C@H](Cc1c[nH]c2ccccc12)NC(=O)[C@H](CCC(N)=O)NC(=O)[C@@H](NC(=O)[C@@H](NC(=O)[C@@H]1CSSC[C@H](NC(=O)[C@@H](N)CCCCN)C(=O)N[C@@H](CC(N)=O)C(=O)N[C@@H]([C@@H](C)O)C(=O)N[C@@H](C)C(=O)N[C@@H]([C@@H](C)O)C(=O)N1)[C@@H](C)O)C(C)C)C(=O)N[C@@H](Cc1ccc(O)cc1)C(=O)N[C@@H](CCC(N)=O)C(=O)N[C@@H](Cc1ccccc1)C(=O)N[C@H](C(=O)N[C@@H](CC(=O)O)C(=O)N[C@@H](CCCCN)C(=O)N[C@@H](CC(=O)O)C(=O)N[C@@H](CCCCN)C(=O)N[C@@H](C)C(=O)N[C@@H](CC(N)=O)C(=O)N[C@H](C(=O)N[C@@H](C)C(=O)N1CCC[C@H]1C(=O)N1CCC[C@H]1C(=O)N[C@H](C(=O)N[C@@H](CC(N)=O)C(=O)N[C@H](C(=O)NCC(=O)N[C@@H](CO)C(=O)N[C@@H](CC(N)=O)C(=O)NCC(=O)N1C[C@H](O)C[C@H]1C(N)=O)C(C)C)[C@@H](C)O)C(C)C)[C@@H](C)O [compound 314] (H-KCNTATCTVQWLAHQIYQFTDKDKANVAPPTNVGSNG[Hyp]-NH2; disulfide 2-7; N-terminus assumed) | 0.008 | > 5000 | 11.900
4 | CC[C@H](C)[C@H](NC(=O)[C@H](CCC(N)=O)NC(=O)[C@H](Cc1c[nH]cn1)NC(=O)[C@H](C)NC(=O)[C@H](CC(C)C)NC(=O)[C@H](Cc1c[nH]c2ccccc12)NC(=O)[C@H](CCC(N)=O)NC(=O)[C@@H](NC(=O)[C@@H](NC(=O)[C@@H]1CSSC[C@H](NC(=O)[C@@H](N)CCCCN)C(=O)N[C@@H](CC(N)=O)C(=O)N[C@@H]([C@@H](C)O)C(=O)N[C@@H](C)C(=O)N[C@@H]([C@@H](C)O)C(=O)N1)[C@@H](C)O)C(C)C)C(=O)N[C@@H](Cc1ccc(O)cc1)C(=O)N[C@@H](CCC(N)=O)C(=O)N[C@@H](Cc1ccccc1)C(=O)N[C@H](C(=O)N[C@@H](CC(=O)O)C(=O)N[C@@H](CCCCN)C(=O)N[C@@H](CC(=O)O)C(=O)N[C@@H](CCCCN)C(=O)N[C@@H](CC(=O)O)C(=O)N[C@@H](CC(N)=O)C(=O)N[C@@H](C)C(=O)N[C@@H](C)C(=O)N1CCC[C@H]1C(=O)N1CCC[C@H]1C(=O)N[C@H](C(=O)N[C@@H](CC(N)=O)C(=O)N[C@H](C(=O)NCC(=O)N[C@@H](CO)C(=O)N[C@@H](CC(N)=O)C(=O)NCC(=O)N1C[C@H](O)C[C@H]1C(N)=O)C(C)C)[C@@H](C)O)[C@@H](C)O [compound 315] (H-KCNTATCTVQWLAHQIYQFTDKDKDNAAPPTNVGSNG[Hyp]-NH2; disulfide 2-7; N-terminus assumed) | 0.012 | > 5000 | 17.150
5 | CC[C@H](C)[C@H](NC(=O)[C@H](CCC(N)=O)NC(=O)[C@H](Cc1c[nH]cn1)NC(=O)[C@H](C)NC(=O)[C@H](CC(C)C)NC(=O)[C@H](Cc1c[nH]c2ccccc12)NC(=O)[C@H](CCC(N)=O)NC(=O)[C@@H](NC(=O)[C@@H](NC(=O)[C@@H]1CSSC[C@H](NC(=O)[C@@H](N)CCCCN)C(=O)N[C@@H](CC(N)=O)C(=O)N[C@@H]([C@@H](C)O)C(=O)N[C@@H](C)C(=O)N[C@@H]([C@@H](C)O)C(=O)N1)[C@@H](C)O)C(C)C)C(=O)N[C@@H](Cc1ccc(O)cc1)C(=O)N[C@@H](CCC(N)=O)C(=O)N[C@@H](Cc1ccccc1)C(=O)N[C@H](C(=O)N[C@@H](CC(=O)O)C(=O)N[C@@H](CCCCN)C(=O)N[C@@H](CC(=O)O)C(=O)N[C@@H](CCCCN)C(=O)N[C@@H](CC(=O)O)C(=O)N[C@@H](CC(N)=O)C(=O)N[C@H](C(=O)N[C@@H](C)C(=O)N1CCC[C@H]1C(=O)N[C@@H](C)C(=O)N[C@H](C(=O)N[C@@H](CC(N)=O)C(=O)N[C@H](C(=O)NCC(=O)N[C@@H](CO)C(=O)N[C@@H](CC(N)=O)C(=O)NCC(=O)N1C[C@H](O)C[C@H]1C(N)=O)C(C)C)[C@@H](C)O)C(C)C)[C@@H](C)O [compound 316] (H-KCNTATCTVQWLAHQIYQFTDKDKDNVAPATNVGSNG[Hyp]-NH2; disulfide 2-7) | 0.012 | > 5000 | 20.450
6 | CC[C@H](C)[C@H](NC(=O)[C@H](CCC(N)=O)NC(=O)[C@H](Cc1c[nH]cn1)NC(=O)[C@H](C)NC(=O)[C@H](CC(C)C)NC(=O)[C@H](Cc1c[nH]c2ccccc12)NC(=O)[C@H](CCC(N)=O)NC(=O)[C@@H](NC(=O)[C@@H](NC(=O)[C@@H]1CSSC[C@H](NC(=O)[C@@H](N)CCCCN)C(=O)N[C@@H](CC(N)=O)C(=O)N[C@@H]([C@@H](C)O)C(=O)N[C@@H](C)C(=O)N[C@@H]([C@@H](C)O)C(=O)N1)[C@@H](C)O)C(C)C)C(=O)N[C@@H](Cc1ccc(O)cc1)C(=O)N[C@@H](CCC(N)=O)C(=O)N[C@@H](Cc1ccccc1)C(=O)N[C@H](C(=O)N[C@@H](CCCCN)C(=O)N[C@@H](CC(=O)O)C(=O)N[C@@H](CCCCN)C(=O)N[C@@H](CC(=O)O)C(=O)N[C@@H](CC(N)=O)C(=O)N[C@H](C(=O)N[C@@H](C)C(=O)N1CCC[C@H]1C(=O)N1CCC[C@H]1C(=O)N[C@H](C(=O)N[C@@H](CC(N)=O)C(=O)N[C@H](C(=O)NCC(=O)N[C@@H](CO)C(=O)N[C@@H](CC(N)=O)C(=O)NCC(=O)N1C[C@H](O)C[C@H]1C(N)=O)C(C)C)[C@@H](C)O)C(C)C)[C@@H](C)O [compound 317] (H-KCNTATCTVQWLAHQIYQFTKDKDNVAPPTNVGSNG[Hyp]-NH2; disulfide 2-7; N-terminus assumed) | 0.004 | > 5000 | 5.550
